Reference: US10925283B2, “Microbiocidal phenylamidine derivatives” (SYNGENTA PARTICIPATIONS AG, priority 2016, dated 2021)

Columns and labels:
Type in all cases: in vivo
[1] = test system: Blumeria graminis f. sp. tritici (Erysiphe graminis f. sp. tritici); experiment: Blumeria graminis f. sp. tritici / wheat / leaf disc preventative (powdery mildew on wheat); settings: foliar, wheat leaf segments cv. Kanzler, inoculated 1 day after application, assessed 6-8 days after application, read-out: control of Blumeria graminis f. sp. tritici (percent disease control compared to untreated)
Procedure: Blumeria graminis f. sp. tritici (Erysiphe graminis f. sp. tritici)/Wheat/Leaf Disc Preventative (Powdery Mildew on Wheat) Wheat leaf segments cv. Kanzler are placed on agar in a multiwell plate (24-well format) and sprayed with the formulated test compound diluted in water. The leaf disks are inoculated by shaking powdery mildew infected plants above the test plates 1 day after application. The inoculated leaf disks are incubated at 20° C. and 60% rh under a light regime of 24 h darkness followed by 12 h light/12 h darkness in a climate chamber and the activity of a compound is assessed as percent disease control compared to untreated when an appropriate level of disease damage appears on untreated check leaf segments (6-8 days after application).

Phakopsora pachyrhizi = Phakopsora pachyrhizi / soybean / preventative (soybean rust); settings: foliar, soybean leaf disks, inoculated one day after application, assessed 12-14 days after application, read-out: control of Phakopsora pachyrhizi (percent disease control compared to untreated)
Procedure: Phakopsora pachyrhizi/Soybean/Preventative (Soybean Rust) Soybean leaf disks are placed on water agar in multiwell plates (24-well format) and sprayed with the formulated test compound diluted in water. One day after application leaf discs are inoculated by spraying a spore suspension on the lower leaf surface. After an incubation period in a climate cabinet of 24-36 hours in darkness at 20° C. and 75% rh leaf disc are kept at 20° C. with 12 h light/day and 75% rh. The activity of a compound is assessed as percent disease control compared to untreated when an appropriate level of disease damage appears in untreated check leaf disks (12-14 days after application).

[2] = test system: Puccinia recondita f. sp. tritici; experiment: Puccinia recondita f. sp. tritici / wheat / leaf disc curative (brown rust); settings: foliar, wheat leaf segments cv. Kanzler, compound applied 1 day after inoculation, assessed 6-8 days after application, read-out: control of Puccinia recondita f. sp. tritici (percent disease control compared to untreated)
Procedure: Puccinia recondita f. Sp. Tritici/Wheat/Leaf Disc Curative (Brown Rust) Wheat leaf segments cv. Kanzler are placed on agar in multiwell plates (24-well format). The leaf segments are inoculated with a spore suspension of the fungus. Plates are stored in darkness at 19° C. and 75% rh. The formulated test compound diluted in water is applied 1 day after inoculation. The leaf segments are incubated at 19° C. and 75% rh under a light regime of 12 h light/12 h darkness in a climate cabinet and the activity of a compound is assessed as percent disease control compared to untreated when an appropriate level of disease damage appears in untreated check leaf segments (6-8 days after application).

[3] = test system: Puccinia recondita f. sp. tritici; experiment: Puccinia recondita f. sp. tritici / wheat / leaf disc preventative (brown rust); settings: foliar, wheat leaf segments cv. Kanzler, inoculated 1 day after application, assessed 7-9 days after application, read-out: control of Puccinia recondita f. sp. tritici (percent disease control compared to untreated)
Procedure: Puccinia recondita f. Sp. Tritici/Wheat/Leaf Disc Preventative (Brown Rust) Wheat leaf segments cv. Kanzler are placed on agar in multiwell plates (24-well format) and sprayed with the formulated test compound diluted in water. The leaf disks are inoculated with a spore suspension of the fungus 1 day after application. The inoculated leaf segments are incubated at 19° C. and 75% rh under a light regime of 12 h light/12 h darkness in a climate cabinet and the activity of a compound is assessed as percent disease control compared to untreated when an appropriate level of disease damage appears in untreated check leaf segments (7-9 days after application).

Measured: pest or weed control at 200 ppm

CCN(C)/C=N/c1cc(OC)c(C(O)(COCCc2ccccc2)C(F)(F)F)cc1C (stereo not shown) [E.021, N-ethyl-N′-[5-methoxy-2-methyl-4-[2,2,2-trifluoro-1-hydroxy-1-(2-phenylethoxymethyl)ethyl]phenyl]-N-methyl-formamidine]
≥ 80%: all assays above

CCN(C)/C=N/c1cc(OC)c(C(O)(COC2CC(C)CC(C)C2)C(F)(F)F)cc1C (stereo not shown) [E.006, N′-[4-[1-[(3,5-dimethylcyclohexoxy)methyl]-2,2,2-trifluoro-1-hydroxy-ethyl]-5-methoxy-2-methyl-phenyl]-N-ethyl-N-methyl-formamidine]
≥ 80%: all assays above

CCN(C)/C=N/c1cc(OC)c(C(O)(COCc2ccccc2)C(F)(F)F)cc1C (stereo not shown) [E.043, N′-[4-[1-(benzyloxymethyl)-2,2,2-trifluoro-1-hydroxy-ethyl]-5-methoxy-2-methyl-phenyl]-N-ethyl-N-methyl-formamidine]
≥ 80%: [1] | Phakopsora pachyrhizi | [3]

CCN(C)/C=N/c1cc(OC)c(C(O)(COC2CCC(C)CC2)C(F)(F)F)cc1C (stereo not shown) [E.042, N-ethyl-N′-[5-methoxy-2-methyl-4-[2,2,2-trifluoro-1-hydroxy-1-[(4-methylcyclohexoxy)methyl]ethyl]phenyl]-N-methyl-formamidine]
≥ 80%: all assays above

CCN(C)/C=N/c1cc(OC)c(C(O)(COCc2ccc(F)cc2)C(F)(F)F)cc1C (stereo not shown) [E.044, N-ethyl-N′-[5-methoxy-2-methyl-4-[2,2,2-trifluoro-1-[(4-fluorophenyl)methoxymethyl]-1-hydroxy-ethyl]phenyl]-N-methyl-formamidine]
≥ 80%: [1] | Phakopsora pachyrhizi | [3]

CCN(C)/C=N/c1cc(OC)c(C(O)(COC2CCCCC2)C(F)(F)F)cc1C (stereo not shown) [E.039, N′-[4-[1-(cyclohexoxymethyl)-2,2,2-trifluoro-1-hydroxy-ethyl]-5-methoxy-2-methyl-phenyl]-N-ethyl-N-methyl-formamidine]
≥ 80%: all assays above

CCN(C)/C=N/c1cc(OC)c(C(O)(COc2ccccc2)C(F)(F)F)cc1C (stereo not shown) [E.047, N-ethyl-N′-[5-methoxy-2-methyl-4-[2,2,2-trifluoro-1-hydroxy-1-(phenoxymethyl)ethyl]phenyl]-N-methyl-formamidine]
≥ 80%: all assays above

CCO/N=C(\C)CC(O)(c1cc(C)c(/N=C/N(C)CC)cc1OC)C(F)(F)F (stereo not shown) [E.057, N′-[4-[(3E)-3-ethoxyimino-1-hydroxy-1-(trifluoromethyl)butyl]-5-methoxy-2-methyl-phenyl]-N-ethyl-N-methyl-formamidine]
≥ 80%: all assays above

CCN(C)/C=N/c1cc(OC)c(C(O)(CON=C(C)C)C(F)(F)F)cc1C (stereo not shown) [E.036, N-ethyl-N′-[5-methoxy-2-methyl-4-[2,2,2-trifluoro-1-hydroxy-1-[(isopropylideneamino)oxymethyl]ethyl]phenyl]-N-methyl-formamidine]
≥ 80%: all assays above

CCC(CC)OCC(O)(c1cc(C)c(/N=C/N(C)CC)cc1OC)C(F)(F)F (stereo not shown) [E.024, N-ethyl-N′-[4-[1-(1-ethylpropoxymethyl)-2,2,2-trifluoro-1-hydroxy-ethyl]-5-methoxy-2-methyl-phenyl]-N-methyl-formamidine]
≥ 80%: Phakopsora pachyrhizi

CCN(C)/C=N/c1cc(OC)c(C(O)(CSc2ccccc2)C(F)(F)F)cc1C (stereo not shown) [E.072, N-ethyl-N′-[5-methoxy-2-methyl-4-[2,2,2-trifluoro-1-hydroxy-1-(phenylsulfanylmethyl)ethyl]phenyl]-N-methyl-formamidine]
≥ 80%: [1] | Phakopsora pachyrhizi | [3]

CCN(C)/C=N/c1cc(OC)c(C(O)(COC2CCCC2)C(F)(F)F)cc1C (stereo not shown) [E.032, N′-[4-[1-(cyclopentoxymethyl)-2,2,2-trifluoro-1-hydroxy-ethyl]-5-methoxy-2-methyl-phenyl]-N-ethyl-N-methyl-formamidine]
≥ 80%: Phakopsora pachyrhizi

CCN(C)/C=N/c1cc(OC)c(C(O)(CO[C@H]2CC[C@H](C)CC2)C(F)(F)F)cc1C (stereo partly shown) [E.004, N-ethyl-N′-[5-methoxy-2-methyl-4-[2,2,2-trifluoro-1-hydroxy-1-[(4-methylcyclohexoxy)methyl]ethyl]phenyl]-N-methyl-formamidine]
≥ 80%: Phakopsora pachyrhizi

CCN(C)/C=N/c1cc(OC)c(C(O)(COC2CCc3ccccc32)C(F)(F)F)cc1C (stereo not shown) [E.005, N-ethyl-N′-[5-methoxy-2-methyl-4-[2,2,2-trifluoro-1-hydroxy-1-(indan-1-yloxymethyl)ethyl]phenyl]-N-methyl-formamidine]
≥ 80%: [1] | [2] | [3]

CCN(C)/C=N/c1cc(OC)c(C(O)(COC2CCC2)C(F)(F)F)cc1C (stereo not shown) [E.025, N′-[4-[1-(cyclobutoxymethyl)-2,2,2-trifluoro-1-hydroxy-ethyl]-5-methoxy-2-methyl-phenyl]-N-ethyl-N-methyl-formamidine]
≥ 80%: [1] | [2] | [3]

CCC1CCC(OCC(O)(c2cc(C)c(/N=C/N(C)CC)cc2OC)C(F)(F)F)CC1 (stereo not shown) [E.033, N-ethyl-N′-[4-[1-[(4-ethylcyclohexoxy)methyl]-2,2,2-trifluoro-1-hydroxy-ethyl]-5-methoxy-2-methyl-phenyl]-N-methyl-formamidine]
≥ 80%: [1] | [2] | [3]

CCN(C)/C=N/c1cc(OC)c(C(O)(CS(=O)(=O)C(C)C)C(F)(F)F)cc1C (stereo not shown) [E.063, N-ethyl-N′-[5-methoxy-2-methyl-4-[2,2,2-trifluoro-1-hydroxy-1-(isopropylsulfonylmethyl)ethyl]phenyl]-N-methyl-formamidine]
≥ 80%: [1] | [2] | [3]
